According to patent US20240199577A1, “ACORAMIDIS ANALOGS FOR STABILIZING TRANSTHYRETIN AND INHIBITING TRANSTHYRETIN MISFOLDING” (Protego Biopharma, Inc., priority 2021, published 2024):

Experiments:
[1] = Pharmacokinetic study in rat (plasma, CSF, brain); assay type: in vivo; settings: male, Sprague-Dawley, oral dose of 40 mg/kg
Source text: For a compound provided herein to be an effective TTR stabilizer drug to halt and/or prevent the ocular and cerebral TTR amyloid deposition TTR amyloidosis, it has to be able to penetrate into the brain and CSF (surrogate for eye penetration) and deliver a sufficient amount of TTR stabilizer to stop TTR dissociation. A pharmacokinetic study in rat is used to evaluate the compounds. Male Sprague-Dawley (SD) rats (200-220 g weight) are acclimated for at least 2 to 3 days before being placed on study. All animals will have access to certified rodent diet and water at libitum. […] For IV dosing, the test compound is administered via tail vein or indwelling cannula. For oral dosing, the test compound is administered by oral gavage. Blood and CSF samples are collected at selected timepoints. Blood collection is performed from saphenous vein or tail vein of each animal into polypropylene tubes at each timepoint. […] The weight of brain samples is recorded. […] Using a LC-MSMS method for the quantitative determination of test compound in biological matrixes, amount of test compound and active agent are measured in plasma and CSF at selected timepoints post-dosing and in brain at 24 hrs post dosing. Plasma concentration versus time data is analyzed by non-compartmental approaches using the Phoenix WinNonlin 6.3 software program. […]

[2] = tafamidis-treated FAP patients, cited from earlier work
[3] = In vitro rat liver S9 stability assay (formation of AG10); assay type: in vitro ADME; settings: rat liver S9, 1 μM test compound, 37° C.
Experimental: The test compound was added to liver S9 and incubated at 37° C. in a water bath at a concentration of 1 μM. At each time point (0, 5, 10, 20, 30 and 60 min), stop solution (tolbutamide plus labetalol) was added to precipitate protein and mixed thoroughly. After centrifugation, an aliquot of supernatant was analyzed by LC-MS/MS. The percentage of formation of active agent was calculated at each time point.

## Cc1n[nH]c(C)c1CCCOc1cc(C(=O)O)ccc1F [AG10, acoramidis]
[1]; CSF and plasma, over 24 hrs, read-out: CSF to plasma ratio over 24 hrs
  Kp: ~0.009
[1]; brain and plasma, at 24 hrs, read-out: brain to plasma ratio at 24 hrs
  Kp at 24 h: ~0.008

## O=C(O)c1ccc2nc(-c3cc(Cl)cc(Cl)c3)oc2c1 [tafamidis]
[2]; CSF
  tafamidis level in CSF relative to that in plasma: 2%
  tafamidis/TTR stoechimetric ratio in CSF: ≤ 1
[2]; plasma
  tafamidis/TTR stoechimetric ratio in plasma: 2.4
[2]; vitreous
  tafamidis level in vitreous relative to that in plasma: 0.5%
  tafamidis/TTR stoechimetric ratio in vitreous: ≤ 1

## Cc1n[nH]c(C)c1CCCOc1cc(C(=O)OC2CCN(C)C2)ccc1F (centres unmarked) [Compound 2, 1-methylpyrrolidin-3-yl 3-(3-(3,5-dimethyl-1H-pyrazol-4-yl)propoxy)-4-fluorobenzoate]
[3]
  Formation of AG10 at 60 min: A (A is <25%)
